Results as given in US4526890A, “3,6,7,8-Substituted-s-triazolo[4,3-b]pyridazines as bronchodilators” (The Dow Chemical Company, priority 1981, dated 1985).

Columns and labels:
[1] = test system: histamine-induced bronchoconstriction; settings: in words; cited from earlier work
[2] = test system: histamine-induced bronchoconstriction; assay: Bronchodilator activity in the Konzett-Rossler guinea pig preparation (histamine-induced bronchoconstriction); type: in vivo; design: key to Histamine Blockade: % blockade = 100 − (post-dose response / mean of 3 prior) × 100; settings: for Histamine Blockade: table 7, intravenous, 3 mg/kg except as otherwise indicated, aminophylline 10 mg/kg
Experimental: Bronchodilator activity of representative triazolopyridazine compounds of the invention is examined in the Konzett-Rossler quinea pig preparation according to accepted procedures. See Knozett and Rossler; Arch. f. Exp. Path. u. Pharmakol. […] Int. Pharmacodyn. […] In this procedure an anesthetized guinea pig is artificially respired with a fixed volume of air. The volume of air is selected to slightly exceed the capacity of the guinea pig's lungs, and the excess air or "overflow" is measured. Test compounds are evaluated by administering a test compound intravenously 2 minutes prior to administration of an agonist compound (histamine, serotonin or acetylcholine) following 3 previous agonist doses resulting in relatively uniform (±10 percent) bronchoconstriction. […] This is calculated by dividing the "overflow" agonist response measured after administration of the test compound by the average of the 3 preceding agonist responses, multiplying by 100 and subtracting this value from 100 percent.

[3] = 30 minute LD50 (acute toxicity without sound); settings: mouse, in vivo, ip
Experimental: (§1) The interaction of sound with the convulsive threshold of drugs is a known phenomenon which can be used to evaluate such side effects. […] In a procedure for pharmacological evaluation, the lowering of the convulsive threshold, or the lowering of the LD50, by sound can be studied in mice.
(§2) In the test operations, mice are administered a test compound by intraperitoneal injection at various dosages, and the number of mice showing tonic convulsions and the number of fatalities occurring within 30 minutes is recorded.

[4] = Audiogenic convulsive side effects (sound challenge: tonic convulsions and fatalities); settings: mouse, ip
Experimental: as §1, §2
(§3) The sound exposure is carried out by placing the mice in a sound insulated cage with a bell which emits 120 decibels of sound, and activating the bell for two minutes. The number of tonic convulsions and fatalities are then recorded to determine the ED50 and LD50 in the presence of the sound challenge.

mice [5] = settings: laboratory animals; in words; U.S. Pat. No. 4,136,182; cited from earlier work
mice [6] = settings: laboratory animals; in words; U.S. Pat. No. 4,136,182; cited from earlier work; remark: listed apart in the source
mice [7] = assay: in vivo; settings: mouse
Experimental: as §1, §2, §3

| SMILES | effect on bronchoconstriction [1] | Histamine Blockade [2] | LD50 at 0.5 h [3] | LD50 ([4]; in vivo) | TD50 ([4]; in vivo) | LD50 (toxicity) (mice [5]) | audiogenic convulsions (mice [6]) | percent blockade of histamine ([2]; 3 mg/kg intravenously, 2 minutes prior to histamine) | TD50 [4] | audiogenic convulsive threshold / sound-induced toxicity (mice [7]) |
| --- | --- | --- | --- | --- | --- | --- | --- | --- | --- | --- |
| Cc1cc(-c2ccccc2)c2nnc(N3CCOCC3)n2n1 [6-methyl-3-(4-morpholinyl)-8-phenyl-s-triazolo[4,3-b]pyridazine] | potentiate bronchoconstriction | – | – | – | – | – | – | – | – | – |
| c1ccc(-c2nnc3ccc(N4CCOCC4)nn23)cc1 [6-morpholino-3-phenyl-s-triazolo[4,3-b]pyridazine, reference compound] | potent bronchodilator | 22 | > 400 mg/kg | 30 mg/kg | 5 mg/kg | high LD50 (low toxicity) | produce audiogenic convulsions in laboratory animals at relatively low dosages | – | – | – |
| Cc1cc2nnc(C)n2nc1N1CCOCC1 [Example 2, 3,7-dimethyl-6-morpholino-s-triazolo[4,3-b]pyridazine] | – | 61 | 228 mg/kg | 148 mg/kg | – | – | – | 61% | 135 mg/kg | much less reduction in convulsive threshold |
